Literature values, collected in patent publication US20050032747A1, “COX-2 and FAAH inhibitors” (priority 2003, published 2005).

Test system: prostaglandin synthesis
Conditions: reported by Shen et al. 1977

Cc1c(CC(=O)O)c2cc(O)ccc2n1C(=O)c1ccc(Cl)cc1 [desmethylindomethacin, O-desmethylindomethacin]
ability to inhibit prostaglandin synthesis: some ability to inhibit prostaglandin synthesis
